Assay results from patent publication US4065456A, “Glycerol derivatives of quinoline carbostyryl and isocarbo styryl” (Otsuka Pharmaceutical Co., Ltd., priority 1973, dated 1977).

Legend:
[1] = test system: ADP-Induced Aggregation In Rabbit Platelets; assay: Inhibition of ADP-induced aggregation in rabbit platelets (aggregometer, PRP); type: cell-based; details: Oryctolagus cuniculus, Platelet, ADP 7.5 × 10^-5 M, PRP 300,000 platelets/mm^3; for inhibition at 100 µM: concentration 10^-4 M; for inhibition at 1 µM: concentration 10^-6 M; for inhibition at 0.01 µM: concentration 10^-8 M; for inhibition at 10 µM: concentration 10^-5 M
Description: (§1) The inhibitory activity of some compounds of this invention and the method for determination of the activity are described hereinafter in greater detail.
(§2) The aggregation inhibitory activity was determined using an AG-II type aggregometer (made by Bryston Manufacturing Co.). A blood sample was withdrawn from rabbits as a mixture of sodium citrate and whole blood in a proportion of 1:9 by volume and centrifuged at 1000 rpm for 10 minutes to obtain a platelet rich plasma (PRP). The resulting PRP was separated, and the remaining blood sample was further centrifuged at 3000 rpm for 15 minutes to obtain a platelet poor plasma (PPP).
(§3) The number of platelets in the PRP was counted in accordance with the Brecher-Clonkite Method, and the PRP was diluted with the PPP to prepare a PRP sample containing platelets in an amount of 300,000/mm^3 for an adenosine diphosphate (ADP)-induced aggregation test and a PRP sample containing platelets in an amount of 450,000/mm^3 for a collagen-induced aggregation test.
(§4) 0.01 ml of a solution of a test compound having a predetermined concentration (as shown in the Tables below) was then added to 0.6 ml of the PRP sample obtained above and the mixture was incubated at a temperature of 37° C for 1 minute. Then 0.07 ml of an ADP or collagen solution was added to the mixture. The mixture was then subjected to a transmittance determination and changes in the transmittance of the mixture were recorded using aggregometer at a stirrer rotation rate of 1100 rpm. In this test, Owren Veronal buffer (pH 7.35) was used for the preparation of solutions of ADP, collgen and the test compounds. ADP was adjusted to a concentration of 7.5 × 10^-5 M, and the collagen solution was prepared by triturating 100 mg of collagen with 5 ml of the above buffer and the supernatant obtained was used as a collagen inducer. Adenosine and acetylsalicylic acid were used as controls for the ADP-induced aggregation test and the collagen-induced aggregation test, respectively. The aggregation inhibitory activity was determined in terms of the percent inhibition (%) with respect to the aggregation ratio of controls. The aggregation ratio can be calculated by the following equation: [formula] Wherein:
(§5) "a" is the optical density of the PRP,
(§6) "b" is the optical density of the PRP having incorporated therein a test compound and an aggregation inducer, and
(§7) "c" is the optical density of the PPP.

[2] = test system: Collagen-Induced Aggregation In Rabbit Platelets; assay: Inhibition of collagen-induced aggregation in rabbit platelets (aggregometer, PRP); type: cell-based; details: Oryctolagus cuniculus, Platelet, PRP 450,000 platelets/mm^3; for inhibition at 100 µM: concentration 10^-4 M; for inhibition at 10 µM: concentration 10^-5 M; for inhibition at 1 µM: concentration 10^-6 M; for inhibition at 0.01 µM: concentration 10^-8 M
Description: as §1, §2, §3, §4, §5, §6, §7

| SMILES | inhibition at 100 µM ([1]; table 3) | inhibition at 1 µM ([1]; table 3) | inhibition at 0.01 µM ([1]; table 3) | inhibition at 100 µM ([2]; table 2) | inhibition at 1 µM ([2]; table 2) | inhibition at 0.01 µM ([2]; table 2) | other results |
| --- | --- | --- | --- | --- | --- | --- | --- |
| OCC(O)COc1cccc2c(O)nccc12 (centres unmarked) | 2% | 6% | 0% |  |  |  |  |
| CC(=O)Oc1ccccc1C(=O)O [Acetylsalicylic Acid, reference compound] |  |  |  |  |  |  | inhibition at 100 µM ([2]; table 5): 100%; inhibition at 10 µM ([2]; table 5): 12%; inhibition at 1 µM ([2]; table 5): 8% |
| Nc1ncnc2c1ncn2[C@@H]1O[C@H](CO)[C@@H](O)[C@H]1O [Adenosine, reference compound] | 70% | 47% | 5% |  |  |  | inhibition at 100 µM ([1]; table 4): 92%; inhibition at 10 µM ([1]; table 4): 74%; inhibition at 1 µM ([1]; table 4): 63%; inhibition at 0.01 µM ([1]; table 4): 15% |
| O=C1CCc2c(cccc2OCC(O)CO)N1 (centres unmarked) [drawing 32] |  |  |  | 100% | 11% | 8% |  |
| CN1C(=O)CCc2c(OCC(O)CO)cccc21 (centres unmarked) [drawing 33] |  |  |  | 7% | 13% | 0% |  |
| C=CCN1C(=O)CCc2c(OCC(O)CO)cccc21 (centres unmarked) [drawing 34] |  |  |  | 0% | 0% | 0% |  |
| O=C1CCc2cc(OCC(O)CO)ccc2N1 (centres unmarked) [drawing 35] |  |  |  | 100% | 9% | 26% |  |
| O=C1CCc2ccc(OCC(O)CO)cc2N1 (centres unmarked) [drawing 36] |  |  |  | 13% | 18% | 4% |  |
| O=C1CCc2cccc(OCC(O)CO)c2N1 (centres unmarked) [drawing 37] |  |  |  | 25% | 7% | 21% |  |
| O=C1CCc2c(cccc2OCC(O)CO)N1 (centres unmarked) [drawing 38] | 21% | 17% | 21% |  |  |  |  |
| CN1C(=O)CCc2c(OCC(O)CO)cccc21 (centres unmarked) [drawing 39] | 7% | 13% | 0% |  |  |  |  |
| C=CCN1C(=O)CCc2c(OCC(O)CO)cccc21 (centres unmarked) [drawing 40] | 0% | 0% | 0% |  |  |  |  |
| O=C1CCc2cc(OCC(O)CO)ccc2N1 (centres unmarked) [drawing 41] | 100% | 9% | 26% |  |  |  |  |
| O=C1CCc2ccc(OCC(O)CO)cc2N1 (centres unmarked) [drawing 42] | 13% | 18% | 4% |  |  |  |  |
| O=C1CCc2cccc(OCC(O)CO)c2N1 (centres unmarked) [drawing 43] | 25% | 7% | 21% |  |  |  |  |
| O=C1CCc2c(cccc2OC[C@H](O)CO)N1 [drawing 46] |  |  |  |  |  |  | inhibition at 100 µM ([1]; table 4): 49%; inhibition at 10 µM ([1]; table 4): 16%; inhibition at 1 µM ([1]; table 4): 8%; inhibition at 0.01 µM ([1]; table 4): 0% |
| O=C1CCc2c(cccc2OCC(O)CO)N1 (centres unmarked) [drawing 47] |  |  |  |  |  |  | inhibition at 100 µM ([1]; table 4): 51%; inhibition at 10 µM ([1]; table 4): 18%; inhibition at 1 µM ([1]; table 4): 18%; inhibition at 0.01 µM ([1]; table 4): 15% |
| O=C1CCc2c(cccc2OC[C@H](O)CO)N1 [drawing 48] |  |  |  |  |  |  | inhibition at 100 µM ([2]; table 5): 95%; inhibition at 10 µM ([2]; table 5): 3%; inhibition at 1 µM ([2]; table 5): 3%; inhibition at 0.01 µM ([2]; table 5): 0% |
| O=C1CCc2c(cccc2OCC(O)CO)N1 (centres unmarked) [drawing 49] |  |  |  |  |  |  | inhibition at 100 µM ([2]; table 5): 95%; inhibition at 10 µM ([2]; table 5): 17%; inhibition at 1 µM ([2]; table 5): 7%; inhibition at 0.01 µM ([2]; table 5): 3% |
